One assay has as its system GABA-A receptor. Nature of the assay: Cortical tissue homogenate study: radioactive chloride uptake into vesicles through the GABA-A receptor. It counts as biochemical, rat. To be noted: for Mean % (SEM) chloride uptake relative to only 10 uM GABA: 10 μM GABA alone = 100%, 3alpha-hydroxy-5alpha-pregnan-20-one 0-3000 nM + 10 μM GABA + 30 μM interacting steroid, reference steroid tested without blocker; for Within group change from 0 nM 3alpha-hydroxy-5alpha-pregnan-20-one: doses of 3alpha-hydroxy-5alpha-pregnan-20-one: 1=0, 2=50, 3=100, 4=150, 5=200, 6=1000, 7=3000 nM, + 10 μM GABA + 30 μM steroid. How it is done:
In these studies cortical tissue from mature male rats was homogenized in buffer. As a result of this procedure a suspension of small vesicles was formed, said vesicles having GABA-A receptors on their surface. When radioactive chloride is added to this suspension, a certain amount will enter the vesicles. This amount is related to how much open the GABA-A receptor is. Drugs that open the receptor will increase the amount of chloride in the vesicles in relation to the dosage of the drug. Similarly, drugs that close the GABA-A receptor will decrease the amount of chloride moving into the vesicles. The labeled chloride outside of the vesicles was washed away and separated from the chloride inside. The amount of radioactively labeled chloride inside the vesicles was thereafter measured in a fluid scintillator and a curve drawn.
At each experiment, a control of increasing dosages of GABA was used to ensure that the tissue sample is working properly. A second control was used to enhance the effect of 10 μM of GABA by adding increasing dosages 3alpha-hydroxy-5alpha-pregnan-20-one.
The effect is shown as a percentage change from the uptake with only 10 μM GABA and no 3 alpha-hydroxy-5alpha-pregnan-20-one in this case given the measure 100%.
In all cases 3alpha-hydroxy-5alpha-pregnan-20-one is given in increasing dosages 1=0, 2=50, 3=100, 4=150, 5=200, 6=1000, 7=3000 nM+10 μM GABA+30 μM of interacting Steroid. H=high, S=significant, NS=non significant. Statistical testing made with repeated measures ANOVA followed post hoc with lest significant difference test.

For another assay, the system named is rats. Put plainly: Morris water maze learning model. To be noted: for Learning to find the hidden platform (latency), substance given alone: i.v. daily for 6 days, four trials per day, UC1011 20 mg/kg or 3alpha-hydroxy-5alpha-pregnan-20-one 2 mg/kg, UC1011 vs 3alpha group p<0.05 day 3-6. It counts as in vivo, rat. The text has this:
Animal studies using the Morris water-maze model have been performed. In the Morris water-maze model, the learning capacity of the test animals can be observed. The test animal, usually a rat, is placed in a container with water, having a platform at one location. This platform is slightly under the surface of the water, and the rat must swim until it finds the platform. In following test sessions the rat will learn were the platform is by looking at markings on the wall of the room. It is known, that the learning process is negatively influenced by the administration of CNS depressing 3alpha-hydroxy-pregnan-steroids. (Johansson L M, Birzniece V, Lindblad C., Olsson T. and Bäckström T (2002) Allopregnanolone inhibits learning in the Morris water maze. Brain Res 934, 125-131).
The results (FIG. 3) indicate, that this negative effect is removed or alleviated through the administration of a compound according to the present invention. The experiments were conducted using 3alpha-hydroxy-pregnan-20-one as learning disturbing substance (CAS no. 516-54-1, Table 1) and 3beta,20beta-dihydroxy-5alpha-pregnane, UC1011, (CAS 516-53-9, Table 2 and 3) as blocking substance. Rats (n=46) where injected (i.v) daily with 3beta,20beta-dihydroxy-5alpha-pregnane, UC1011 20 mg/kg (n=14), 3alpha-hydroxy-5alpha-pregnan-20-one 2 mg/kg (n=14), 3alpha-hydroxy-5alpha-pregnan-20-one+3beta,20beta-dihydroxy-5alpha-pregnane, UC1011 2:20 mg/kg (n=14), or vehicle (n=4) Animals were given four swim trials daily with maximal swimming time 120 second for each trial. The rats started to swim 8 minute after the 3alpha-hydroxy-5alpha-pregnan-20-one injection for 6 days. The performance of rats was monitored with a video camera and data was analyzed with analysis of variance (ANOVA) followed by post hoc test.

Several values for one entry are separate records, joined by “and”; a condition that tells them apart may be missing. Equal entries are not always repeated. Entries after “also recorded” stand apart in the source; their conditions may differ.

As for “3beta-hydroxy-5alpha-pregnan-20-one-sulfate, sodium salt [UC1016]”, in the assay on GABA-A receptor, the “Mean % (SEM) chloride uptake relative to only 10 uM GABA” value is given as 109.8(19) % and the “Within group change from 0 nM 3alpha-hydroxy-5alpha-pregnan-20-one” value (“Within group change” below) was “All dosages = NS”.

On to `CC(=O)[C@H]1CC[C@H]2[C@@H]3CC[C@H]4C[C@H](O)CC[C@]4(C)[C@H]3CC[C@]12C` [3alpha-hydroxy-5alpha-pregnan-20-one, reference compound], for which, in the assay with GABA-A receptor, the “Mean % (SEM) chloride uptake relative to only 10 uM GABA” value is 167.7% and 167.7(13) %; the “Within group change” value is “Dose 3, 5, 6, 7 = S”. Further, in the assay on rats (2 mg/kg i.v. daily, after 6 days with practice, max swimming time 120 second), the “Latency to find the platform” value is “above 80 seconds”. For the same molecule, in the assay on rats, the “Learning to find the hidden platform (latency), substance given alone” value (“Learning … substance given alone” for short) is “inhibits spatial learning”. In the assay with rats (listed as 3alpha-hydroxy-5alpha-preganane-20-one), the “Learning … substance given alone” value is reported as “do not learn significantly within six days”.

For the molecule `CC(=O)[C@H]1CC[C@H]2[C@@H]3CC[C@H]4C[C@@H](O)CC[C@]4(C)[C@H]3CC[C@]12C` [UC1010, 3beta-hydroxy-5alpha-pregnan-20-one], in the assay on GABA-A receptor, the “Mean % (SEM) chloride uptake relative to only 10 uM GABA” value is on record as 104.4(13) % and the “Within group change” value was “Dos 7 = S H; also recorded: The rest = NS”.

Consider `CC(O)C1CCC2C3CCC4CC(O)CCC4(C)C3CCC12C` (stereo not drawn) [UC1011, 3beta,20beta-dihydroxy-5alpha-pregnane], for which, in the assay on GABA-A receptor, the “Mean % (SEM) chloride uptake relative to only 10 uM GABA” value is 81.9(19) % and the “Within group change” value is “All dosages = NS”. Further, in the assay on GABA-A receptor (30 μM blocker, 10 μM GABA, increasing 3alpha-hydroxy-5alpha-pregnan-20-one), the “Effect on the increase in chloride uptake induced by 3alpha-hydroxy-5alpha-pregnan-20-one (FIG. 2)” value is “blocked”. In addition, the “Learning to find the hidden platform (latency), blocker given with 3alpha-hydroxy-5alpha-pregnan-20-one” value with rats (3alpha-hydroxy-5alpha-pregnan-20-one + UC1011 2:20 mg/kg i.v. daily for 6 days, compared with the 3alpha-hydroxy-5alpha-pregnan-20-one group, p<0.05 day 4-6, 20 mg/kg) was “lower latency time; also recorded: start to learn significantly on the 4th day of training”. Besides, the “Learning … substance given alone” value in the assay on rats is “learned to find the platform as quickly as the control group; also recorded: learn to find the platform on the tired day of training”.

Consider `C[C@H](O)[C@H]1CC[C@H]2[C@@H]3CC[C@@H]4C[C@@H](O)CC[C@]4(C)[C@H]3CC[C@]12C` [UC1013, 3beta,20alpha-dihydroxy-5beta-pregnane], for which, in the assay on GABA-A receptor, the “Mean % (SEM) chloride uptake relative to only 10 uM GABA” value is 84.2(22) % and the “Within group change” value is given as “All dosages = NS”.

`CC(=O)[C@H]1CC[C@H]2[C@@H]3CC[C@@H]4C[C@@H](O)CC[C@]4(C)[C@H]3CC[C@]12C` [UC1014, 3beta-hydroxy-5beta-pregnan 20-one]: in the assay on GABA-A receptor, the “Mean % (SEM) chloride uptake relative to only 10 uM GABA” value is 92.9(22) % and the “Within group change” value is recorded as “All dosages NS”.

On to `C[C@]12CC[C@H](O)C[C@H]1CC[C@@H]1[C@@H]2CC[C@]2(C)[C@@H](C(=O)CO)CC[C@@H]12` [UC1015, 3beta,21-dihydroxy-5beta-pregnan-20-one], for which, in the assay with GABA-A receptor, the “Mean % (SEM) chloride uptake relative to only 10 uM GABA” value is 102.7(22) % and the “Within group change” value is on record as “All dosages = NS”.

In the case of `CC(=O)[C@H]1CC[C@H]2[C@@H]3CC[C@H]4C[C@@H](O)CC[C@]4(C)[C@H]3C(=O)C[C@]12C` [UC1017, 3beta hydroxy-5alpha-pregnan-11,20-dione], the “Within group change” value in the assay with GABA-A receptor is “All dosages = NS”.

As for `CC(=O)[C@H]1CC[C@H]2[C@@H]3CC=C4C[C@@H](OS(=O)(=O)[O-])CC[C@]4(C)[C@H]3CC[C@]12C.[Na+]` [UC1018, 3beta-hydroxy-delta5-pregnen-20-one-sulfate, sodium salt], in the assay with GABA-A receptor, the “Mean % (SEM) chloride uptake relative to only 10 uM GABA” value is reported as 64.7(23) % and the “Within group change” value is recorded as “All dosages = NS”.

The values above are taken from patent US8119619B2, “Pregnane steroids and their use in the treatment of CNS disorders” (Umecrine AB, priority 2001, dated 2012).
